Source: patent US4492651A, “Cyclic hexapeptides” (American Home Products Corporation, priority 1983, dated 1985)
Square brackets hold non-standard residues; d marks the D form.

System: growth hormone release
Assay: suppression of growth hormone release in arginine stimulated rats (plasma GH by radioimmunoassay)
Assay type: in vivo
Conditions: Nembutal-anaesthetised albino male rats, blood 15 min after peptide
Description: The potent inhibition of growth hormone secretion was established for the compounds of this invention by subjecting the representative product of Example 5 to the following standard procedure involving suppression of growth hormone release in arginine stimulated rats:
Albino male rats are administered Nembutal intraperitoneally at a dose of 50 milligrams per kilogram. Fifteen minutes later a subcutaneous injection of the product of Example 5 is administered. Ten minutes later 0.5 milliliters of arginine (300 milligrams per milliliter, pH 7.2) is injected into the heart. Five minutes after receipt of the arginine the rats are decapitated and blood is collected into Trasylol-EDTA. An appropriate aliquot is assayed for growth hormone (GH) by radioimmuno-assay. The results of the test procedure were compared with those obtained in the same manner with Compound 8 of Table 2 disclosed by Veber et al., loc. cit., as follows: […]

cyclo(PF[dW]KTF) [Compound 8]
Plasma GH Levels (dose of peptide 0.1 μg/kg subcutaneous): 278 ± 89 ng/mL
Plasma GH Levels (dose of peptide 1.0 μg/kg subcutaneous): 169 ± 19 ng/mL
Plasma GH Levels (dose of peptide 10.0 μg/kg subcutaneous): 126 ± 6 ng/mL
